Assay results taken from PMC11565046, “Rational design of 2H-chromene-based antiphytovirals that inhibit virion assembly by outcompeting virus capsid-RNA interactions” (iScience, 2024).
Read-outs that look alike come from different tables or passages of the source.

Columns and labels:
PVY [1] = test: Inactivating activity against PVY, half-leaf method on Chenopodium amaranticolor; type: in vivo, potato virus Y; conditions: Potato virus Y, in Chenopodium amaranticolor
Protocol: (§1) According to previous reports,[46] PVY was infested in Nicotiana tabacum K326, and PVY was harvested and purified after showing severe infection symptoms on the leaves. The literature-guided protocol was followed to assess the curative, prophylactic, and […] potential of the target compounds under investigation.[15]
Target compound solution (1,000 μg/mL) and 2 × virus solution were combined in equal quantities and incubated for 30 min. Evenly distribute emery onto the leaf blades, and apply the mixture of virus and compound solution onto the right side of C. amaranticolor leaf blades. Following this, an identical quantity of a 1× virus solution was applied to the untreated side of the leaf. Following a duration of 1.5 h, the emery residue present on the leaf surface was removed using a rinsing process utilizing water. The plants were incubated within a controlled greenhouse environment, maintaining a consistent temperature of 25°C. After 5−7 days, they proceeded to statistics the number of necrotic spots on the leaves. For each chemical, triplicate experiments were undertaken, and the average percentage of inhibition was subsequently determined.

PVY CP^wt = PVY CP^wt (Potato virus Y, UniProt A0A650FPI8); test: MST assay for affinity with PVY CP^wt; type: binding
Text: Microscale thermophoresis (MST) serves as a potent technique for quantifying the strength of interactions occurring between small molecules and their respective ligands.[19]^,[20] The binding strength between specific target drugs and PVY CP^wt was investigated in vitro using MST, as depicted in Figures 5G and S3. This experimental approach aimed to acquire insights into how target compounds exert their influences against PVY. […] Similarly, the affinity of target compounds for interacting with PVY CP^S125A was tested.
The PVY CP^wt gene, the wild-type variant of the Potato Virus Y coat protein, was cloned into the pET-32a (+) prokaryotic expression vector. This recombinant vector was then thermally transformed into BL21 (DE3) bacterial host cells for subsequent protein expression. The strains above were cultivated on a liquid Luria-Bertani medium (180 rpm, 37°C). To initiate the expression of PVY CP, isopropyl β-D-1-thiogalactopyranoside (IPTG) was added to the culture medium at a concentration of […] when the optical density at 600 nm (OD600) reached a range between 0.6 and 0.8. This step triggered the production of the PVY CP protein. The induction process was maintained for 10 h (180 rpm, 16°C). The 6 × -His-S-tagged PVY CP^wt were purified using nickel-nitriloacetic acid by high-performance column affinity chromatography. Subsequently, enterokinase was employed to digest the proteins, and the desired target proteins were isolated using His-tag purification resin. Ultimately, the proteins were identified through the employment of a 12% sodium dodecyl sulfate-polyacrylamide gel electrophoresis method. The pET-32a (+) plasmid containing the PVY CP^wt gene was used as a template. […] The mutant protein was purified using the method for the purification of PVY CP^wt, which was PVY CP^S125A.
The proteins' binding affinity with target chemicals was evaluated using a Monolith NT.115 instrument (Nano Temper, Munich, Germany), utilizing established methods described in literature.[35]^,[48] A concentration of 2.0 mM was selected for the chemicals, and the proteins were tagged with the Monolith TM RED-NHS second-generation labeling kit. The MST assay analyzed the fluorescence intensity of the labeled proteins, focusing on a range from 400 to 1200 to investigate their interactions. The scanning method was conducted using an “LED power” setting of 40% and a temperature that was maintained at 25.0°C.

PVY [2] = test: Curative activity against PVY, half-leaf method on Chenopodium amaranticolor; type: in vivo; conditions: Potato virus Y, in Chenopodium amaranticolor; 500 μg/mL; Chenopodium amaranticolor leaves; average of three replicates
Text: as §1
To assess the curative effectiveness against PVY, a uniform layer of 200–300 mesh emery was applied to the leaves of C. amaranticolor, followed by rubbing with a virus solution. For 1.5 h, then the emery was washed off with water. After the leaves naturally dried, a 500 μg/mL solution of the test compound was carefully applied to one side of the leaf, while the opposite side received a 1% Tween 80 solution as a control. The plants were subsequently incubated in a greenhouse maintained at 25°C. After 5−7 days, the presence of necrotic spots on the leaves was recorded, with each compound tested on three replicate plants. The average inhibition rate was determined by analyzing the data from these replications.

PVY [3] = test: Protective activity against PVY, half-leaf method on Chenopodium amaranticolor; type: in vivo; conditions: Potato virus Y, in Chenopodium amaranticolor; 500 μg/mL; Chenopodium amaranticolor leaves; average of three replicates
Protocol: as §1
A 500 μg/mL solution of the targeted compound was delicately applied to one side of C. amaranticolor leaves, while the other side was treated with a 1% Tween 80 aqueous solution. The plants were positioned in a greenhouse set at 25°C. Following a 24 h period, the entire leaf surface was inoculated with PVY by uniformly distributing 200–300 mesh emery. After 1.5 h, the emery was washed off with water, and the plants were returned to the greenhouse. After 5–7 days, the number of necrotic spots was tallied, with the assessment based on the greenhouse population. Each compound was tested in triplicate, and the average inhibition rate was subsequently calculated.

[4] = Chenopodium amaranticolor leaves, read-out: EC50 for inactivating activity
[5] = inactivating activity, Table S1, read-out: Experimental pEC50 (converted)

SMILES	EC50 (PVY [1]; [4])	EC50 (PVY [1]; [5])	melting point	Kd (PVY CP^wt)	inhibition at 500 µg/mL (PVY [2])	inhibition at 500 µg/mL (PVY [3])
CC(C)=CCCC1(C)C=Cc2c(ccc(/C=N/c3ccc(NS(=O)(=O)c4ccc(C)cc4)cc3)c2O)O1 (centres unmarked) [Compound C42]	503 ± 17 µg/mL	975 µM	95 to 97 °C	497 µM	–	–
CC1(C)C=Cc2c(ccc(/C=N/c3ccc(NS(=O)(=O)c4ccc(Br)s4)cc3)c2O)O1 [Compound C10]	492 ± 13.3 µg/mL	951 µM	140 to 142 °C	–	60 to 70%	60 to 70%
CC1(C)C=Cc2c(ccc(/C=N/c3ccc(NS(=O)(=O)c4ccc(Cl)s4)cc3)c2O)O1 [Compound C24]	754 ± 10.3 µg/mL	1590 µM	141 to 143 °C	–	60 to 70%	60 to 70%
CC1(C)C=Cc2c(ccc(/C=N/c3ccc(NS(=O)(=O)Cc4ccccc4)cc3)c2O)O1 [Compound C28]	503 ± 12.8 µg/mL	1120 µM	143 to 145 °C	–	60 to 70%	60 to 70%
CC1(C)C=Cc2c(ccc(/C=N/c3ccc(NS(=O)(=O)c4cccc(Br)c4)cc3)c2O)O1 [Compound C16]	688 ± 17.2 µg/mL	1350 µM	161 to 163 °C	–	60 to 70%	60 to 70%
Cc1cccc(S(=O)(=O)Nc2ccc(/N=C/c3ccc4c(c3O)C=CC(C)(C)O4)cc2)c1 [Compound C27]	90.3 ± 7.1 µg/mL	202 µM	152 to 154 °C	–	60 to 70%	60 to 70%
CC1(C)C=Cc2c(ccc(/C=N/c3ccc(NS(=O)(=O)c4cccc(F)c4)cc3)c2O)O1 [Compound C7]	100 ± 5.7 µg/mL	222 µM	164 to 166 °C	–	–	60 to 70%
CC1(C)C=Cc2c(ccc(/C=N/c3ccc(NS(=O)(=O)c4cc(F)cc(F)c4)cc3)c2O)O1 [Compound C26]	100 ± 4.5 µg/mL	213 µM	207 to 209 °C	–	60 to 70%	60 to 70%

Further lines, with some results ahead:

EC50 (PVY [1]; [4])	EC50 (PVY [1]; [5])	melting point	SMILES	Kd (PVY CP^wt)	inhibition at 500 µg/mL (PVY [2])	inhibition at 500 µg/mL (PVY [3])
557 ± 14.3 µg/mL	1190 µM	189 to 191 °C	CC1(C)C=Cc2c(ccc(/C=N/c3ccc(NS(=O)(=O)c4cccc(Cl)c4)cc3)c2O)O1 [Compound C36]	–	60 to 70%	60 to 70%
682 ± 10 µg/mL	1650 µM	132 to 134 °C	CCCCS(=O)(=O)Nc1ccc(/N=C/c2ccc3c(c2O)C=CC(C)(C)O3)cc1 [Compound C29]	–	60 to 70%	60 to 70%
147 ± 8.3 µg/mL	288 µM	158 to 160 °C	CC1(C)C=Cc2c(ccc(/C=N/c3ccc(NS(=O)(=O)c4ccc(Br)cc4)cc3)c2O)O1 [Compound C34]	–	60 to 70%	60 to 70%
306 ± 11 µg/mL	631 µM	193 to 195 °C	CC1(C)C=Cc2c(ccc(/C=N/c3ccc(NS(=O)(=O)c4cccc(Cl)c4F)cc3)c2O)O1 [Compound C37]	–	60 to 70%	60 to 70%
410 ± 9.7 µg/mL	851 µM	193 to 195 °C	Cc1c(Cl)cccc1S(=O)(=O)Nc1ccc(/N=C/c2ccc3c(c2O)C=CC(C)(C)O3)cc1 [Compound C38]	–	60 to 70%	60 to 70%
88.3 ± 4 µg/mL	188 µM	191 to 193 °C	CC1(C)C=Cc2c(ccc(/C=N/c3ccc(NS(=O)(=O)c4c(F)cccc4F)cc3)c2O)O1 [Compound C32]	–	60 to 70%	60 to 70%
553 ± 9.3 µg/mL	944 µM	75 to 77 °C	CC(C)=CCCC1(C)C=Cc2c(ccc(/C=N/c3ccc(NS(=O)(=O)c4ccc(Br)s4)cc3)c2O)O1 (centres unmarked) [Compound C49]	–	–	–
512 ± 11 µg/mL	944 µM	97 to 99 °C	CC(C)=CCCC1(C)C=Cc2c(ccc(/C=N/c3ccc(NS(=O)(=O)c4ccc(Cl)s4)cc3)c2O)O1 (centres unmarked) [Compound C43]	–	–	–
803 ± 12.3 µg/mL	1600 µM	123 to 125 °C	CC1(C)C=Cc2c(ccc(/C=N/c3ccc(NS(=O)(=O)c4cccc(C(F)(F)F)c4)cc3)c2O)O1 [Compound C35]	–	–	–
834 ± 18.3 µg/mL	1610 µM	128 to 130 °C	CC1(C)C=Cc2c(ccc(/C=N/c3ccc(NS(=O)(=O)c4ccc(OC(F)(F)F)cc4)cc3)c2O)O1 [Compound C30]	–	–	–
139 ± 3.2 µg/mL	272 µM	170 to 172 °C	CC1(C)C=Cc2c(ccc(/C=N/c3ccc(NS(=O)(=O)c4ccccc4Br)cc3)c2O)O1 [Compound C33]	–	–	–
